Results as given in ChEMBL document CHEMBL1201862, “PubChem BioAssay data set” (2004).
Active and inactive are the calls of the source. For most assays here, no stated cut-off is given here; in the data, actives have a measured EC50 and inactives only a lower limit.

How the values were obtained:
[1] = target: T1, Rac GTPase-activating protein 1 (Homo sapiens, UniProt Q9H0H5); assay: MgcRacGAP GTPase-activating activity inhibitors, confirmation, biochemical, ADP Hunter fluorescence, primary and confirmatory (AID 624330); assay type: functional
T1 sequence (Q9H0H5 whole entry): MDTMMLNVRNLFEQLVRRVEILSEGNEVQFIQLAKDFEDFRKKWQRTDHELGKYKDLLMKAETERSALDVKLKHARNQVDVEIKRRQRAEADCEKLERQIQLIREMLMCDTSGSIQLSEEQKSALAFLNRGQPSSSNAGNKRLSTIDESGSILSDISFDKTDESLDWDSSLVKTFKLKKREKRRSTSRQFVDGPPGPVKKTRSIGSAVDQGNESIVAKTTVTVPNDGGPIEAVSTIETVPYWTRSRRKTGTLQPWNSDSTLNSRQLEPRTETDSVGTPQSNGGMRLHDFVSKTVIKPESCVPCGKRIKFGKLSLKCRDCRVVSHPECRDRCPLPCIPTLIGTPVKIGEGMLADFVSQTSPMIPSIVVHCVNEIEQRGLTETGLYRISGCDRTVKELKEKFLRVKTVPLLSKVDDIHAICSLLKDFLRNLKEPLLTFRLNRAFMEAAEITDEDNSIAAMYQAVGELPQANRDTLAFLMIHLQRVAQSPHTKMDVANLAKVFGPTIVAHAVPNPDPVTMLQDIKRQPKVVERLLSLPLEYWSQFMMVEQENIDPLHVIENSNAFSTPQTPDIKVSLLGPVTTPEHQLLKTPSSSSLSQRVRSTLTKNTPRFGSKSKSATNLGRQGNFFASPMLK

[2] = THP-1 cell cytotoxicity, dose response, cytotoxicity control for Vif-APOBEC3G degradation inhibitor project, THP-1 cells (AID 1117359); assay type: functional; conditions: Human immunodeficiency virus 1, THP-1
[3] = Luminescence Cell-Based Dose Response to Identify Activators of 5'UTR Stem-Loop Driven Prion Protein mRNA Translation in H4-C Neuroglioblastoma Cells. [Related pubchem assays: 1829 (Project Summary), 1814 (Primary HTS)]; assay type: functional
[4] = Luminescence Cell-Based Dose Confirmation HTS to Identify Activators of 5'UTR Stem-Loop Driven Alpha-Synuclein mRNA Translation in H4 Neuroglioblastoma Cells. [Related pubchem assays: 1829 (Project Summary), 1814 (Primary HTS)]; assay type: functional
[5] = Luminescence Cell-Based Dose Response HTS to Identify Activators of Luciferase Translation or Activity in H4 […] Cells. [Related pubchem assays: 1829 (Project Summary), 1814 (Primary HTS)]; assay type: functional
H4 = assay: Luminescence Cell-Based Dose Response HTS to Identify Activators of 5'UTR Stem-Loop Driven Prion Protein mRNA Translation in H4 Neuroglioblastoma Cells. [Related pubchem assays: 1829 (Project Summary), 1814 (Primary HTS)]; assay type: functional; conditions: Homo sapiens
[6] = Luminescence Cell-Based Dose Response to Identify Activators of Luciferase Translation or Activity in H4-C Neuroglioblastoma Cells. [Related pubchem assays: 1829 (Project Summary), 1814 (Primary HTS)]; assay type: functional
[7] = Luminescence Cell-Based Dose Confirmation to Identify Activators of 5'UTR Stem-Loop Driven Alpha-Synuclein mRNA Translation in H4 Neuroglioblastoma Cells. [Related pubchem assays: 1829 (Project Summary), 1814 (Primary HTS)]; assay type: functional
HeLa = assay: HeLa cell cytotoxicity, dose response, cytotoxicity control for MITF activator project, CellTiter-Glo luminescence, cherry-pick samples (AID 540259); assay type: functional, cell-based; conditions: Homo sapiens
[8] = target: T2, RNA-binding protein pos-1 (Caenorhabditis elegans, UniProt G5EF15); assay: inhibitors of POS-1/mex-3 RNA binding, dose response, biochemical, fluorescence polarization (AID 1964);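 further: purified POS-1 fused to maltose binding protein made in E. coli; potency of compounds blocking POS-1 binding to fluorescent RNA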
T2 sequence (G5EF15 whole entry): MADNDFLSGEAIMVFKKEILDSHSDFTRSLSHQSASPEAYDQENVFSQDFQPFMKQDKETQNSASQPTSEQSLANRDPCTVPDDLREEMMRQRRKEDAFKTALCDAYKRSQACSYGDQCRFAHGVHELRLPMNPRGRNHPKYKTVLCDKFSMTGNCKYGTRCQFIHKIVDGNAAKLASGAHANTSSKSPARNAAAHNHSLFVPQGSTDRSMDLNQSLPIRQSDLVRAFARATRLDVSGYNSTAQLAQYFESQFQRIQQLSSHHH

[9] = target: T3, Zinc finger protein mex-5 (Caenorhabditis elegans, UniProt Q9XUB2); assay: MEX-5/TCR-2 RNA interaction inhibitors, dose response, biochemical, C. elegans, fluorescence polarization (AID 1960)
T3 sequence (Q9XUB2 whole entry): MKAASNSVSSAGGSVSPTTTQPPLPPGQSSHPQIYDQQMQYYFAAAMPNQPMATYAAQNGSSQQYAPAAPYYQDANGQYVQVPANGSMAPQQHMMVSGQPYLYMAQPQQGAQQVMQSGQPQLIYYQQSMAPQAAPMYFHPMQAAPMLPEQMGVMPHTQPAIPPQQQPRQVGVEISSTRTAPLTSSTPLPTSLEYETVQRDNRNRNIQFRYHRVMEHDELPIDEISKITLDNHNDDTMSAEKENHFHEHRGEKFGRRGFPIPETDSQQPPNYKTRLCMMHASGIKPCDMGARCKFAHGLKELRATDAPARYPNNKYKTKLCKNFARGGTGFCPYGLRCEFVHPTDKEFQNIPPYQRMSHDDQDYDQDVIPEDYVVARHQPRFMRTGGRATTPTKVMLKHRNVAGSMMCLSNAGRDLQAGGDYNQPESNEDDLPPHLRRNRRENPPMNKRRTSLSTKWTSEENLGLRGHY

[10] = target: T4, Carboxy-terminal domain RNA polymerase II polypeptide A small phosphatase 1 (Homo sapiens, UniProt Q9GZU7); assay: inhibitors of CTDSP1, concentration-response testing, biochemical assay, absorbance-based, actives from ultra-high-throughput screening (AID 540297); assay type: functional
T4 sequence (Q9GZU7 whole entry): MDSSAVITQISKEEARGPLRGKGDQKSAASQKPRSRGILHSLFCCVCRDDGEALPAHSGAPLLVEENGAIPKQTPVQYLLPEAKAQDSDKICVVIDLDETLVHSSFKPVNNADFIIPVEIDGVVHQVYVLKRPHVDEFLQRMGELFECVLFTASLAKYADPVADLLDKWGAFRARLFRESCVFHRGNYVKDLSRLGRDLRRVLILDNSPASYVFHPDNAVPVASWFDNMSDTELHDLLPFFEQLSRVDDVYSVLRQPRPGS

Caspase-6 = target: T5, Caspase-6 (Homo sapiens, UniProt P55212); assay: human caspase-6 inhibitors, dose response, biochemical, VEID-R110 fluorescence, cherry-pick (AID 720632)
T5 sequence (P55212 whole entry): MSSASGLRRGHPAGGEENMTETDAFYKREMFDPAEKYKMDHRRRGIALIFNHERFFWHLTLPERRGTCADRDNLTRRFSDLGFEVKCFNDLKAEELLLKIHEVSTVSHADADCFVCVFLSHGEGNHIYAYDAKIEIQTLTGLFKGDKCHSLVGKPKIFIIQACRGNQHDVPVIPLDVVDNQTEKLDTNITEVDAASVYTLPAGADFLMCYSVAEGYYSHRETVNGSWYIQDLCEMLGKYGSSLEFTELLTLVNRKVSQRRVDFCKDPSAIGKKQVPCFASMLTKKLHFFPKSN

[11] = target: T6, Histone-lysine N-methyltransferase NSD2 (Homo sapiens, UniProt O96028); assay type: biochemical
T6 sequence (O96028 whole entry): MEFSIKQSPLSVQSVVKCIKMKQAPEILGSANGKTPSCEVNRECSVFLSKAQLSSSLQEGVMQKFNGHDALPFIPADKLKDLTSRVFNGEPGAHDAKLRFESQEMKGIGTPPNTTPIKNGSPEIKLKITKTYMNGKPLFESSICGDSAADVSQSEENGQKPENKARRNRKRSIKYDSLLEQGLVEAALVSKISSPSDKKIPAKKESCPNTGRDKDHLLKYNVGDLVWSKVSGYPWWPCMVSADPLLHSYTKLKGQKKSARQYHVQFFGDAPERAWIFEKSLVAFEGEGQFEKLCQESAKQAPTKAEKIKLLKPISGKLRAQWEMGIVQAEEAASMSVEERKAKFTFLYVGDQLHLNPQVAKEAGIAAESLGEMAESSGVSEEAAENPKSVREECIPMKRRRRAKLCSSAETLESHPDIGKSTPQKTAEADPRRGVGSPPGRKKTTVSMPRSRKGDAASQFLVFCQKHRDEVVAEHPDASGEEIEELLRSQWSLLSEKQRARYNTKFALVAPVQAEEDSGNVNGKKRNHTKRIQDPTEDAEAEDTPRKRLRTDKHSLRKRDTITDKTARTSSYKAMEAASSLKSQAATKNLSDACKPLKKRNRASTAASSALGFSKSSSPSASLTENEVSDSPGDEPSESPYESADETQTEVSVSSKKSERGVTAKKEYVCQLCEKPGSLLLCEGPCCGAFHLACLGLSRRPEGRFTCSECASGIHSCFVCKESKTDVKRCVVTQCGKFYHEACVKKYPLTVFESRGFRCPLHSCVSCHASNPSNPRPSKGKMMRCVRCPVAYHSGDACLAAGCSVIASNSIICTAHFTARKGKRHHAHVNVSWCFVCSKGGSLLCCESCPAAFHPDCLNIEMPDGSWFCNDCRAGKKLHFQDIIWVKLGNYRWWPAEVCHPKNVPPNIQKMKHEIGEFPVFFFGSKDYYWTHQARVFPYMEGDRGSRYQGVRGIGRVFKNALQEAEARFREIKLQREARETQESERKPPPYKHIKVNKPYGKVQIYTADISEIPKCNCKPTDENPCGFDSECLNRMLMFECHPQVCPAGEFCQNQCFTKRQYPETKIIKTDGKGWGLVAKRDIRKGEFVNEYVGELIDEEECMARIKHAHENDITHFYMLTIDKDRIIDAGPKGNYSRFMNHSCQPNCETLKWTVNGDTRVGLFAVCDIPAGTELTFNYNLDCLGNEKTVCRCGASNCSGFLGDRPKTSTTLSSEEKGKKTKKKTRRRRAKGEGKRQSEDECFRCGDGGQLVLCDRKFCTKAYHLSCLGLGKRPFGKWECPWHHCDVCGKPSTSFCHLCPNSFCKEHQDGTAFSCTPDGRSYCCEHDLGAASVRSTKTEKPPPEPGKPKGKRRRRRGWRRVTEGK

Row | Structure (SMILES) | EC50 [3] | EC50 [5] | EC50 (H4) | EC50 [6] | EC50 [7] | further results
1 | COc1cc(Br)c(CNc2cc(C)ccc2C)cc1OC |  |  |  |  |  | IC50 [1]: 97400 nM (active); CC50 [2]: 12600 nM (active)
2 | CN(C)/C=C1\C(=O)N(c2ccc(Cl)cc2)CS1(=O)=O | 1520 nM (active) | 63600 nM (active) | > 120000 nM (not active) | 648 nM (active) | 697 nM (active) | EC50 [4]: < 100 nM (active)
3 | Cc1ccc(-n2c(C)csc2=N)cc1 | 373 nM (active) | 102 nM (active) | 547 nM (active) | 8210 nM (active) | 421 nM (active) | EC50 [4]: < 100 nM (active)
4 | Cc1cc2cc(OCc3ccccc3)ccc2n1C | 383 nM (active) |  | < 100 nM (active) | 393 nM (active) | 217 nM (active) | AC50 (HeLa): 97800 nM (active)
5 | Nc1c(C(=O)N2CCCCC2)sc2nc3c(cc12)CCCC3 | 682 nM (active) | < 100 nM (active) |  | 923 nM (active) | 322 nM (active) | 
6 | Cc1cc(C=O)c(C)n1-c1cc(C(=O)O)cc(C(=O)O)c1 |  |  |  |  |  | EC50 [8]: > 300000 nM (not active); EC50 [9]: > 300000 nM (not active); IC50 [10]: 3160 nM (active); AC50 (Caspase-6): 1710 nM (active); AC50 [11]: > 20000 nM (inactive)
7 | COc1ccc(OC)c(NC(=O)CSc2nc3ccccc3c(=O)n2CC2CCCO2)c1 (centres undefined) |  |  |  |  |  | CC50 [2]: > 40000 nM (active)
